Data from patent publication US12110293B2, “Substituted triazolo quinoxaline derivatives” (GRÜNENTHAL GMBH, priority 2018, dated 2024).

Molecular target: T1, glucocorticoid receptor (Homo sapiens, UniProt P04150)
T1 construct: expressed in transfected cells
T1 sequence (P04150 524-758 limits assumed): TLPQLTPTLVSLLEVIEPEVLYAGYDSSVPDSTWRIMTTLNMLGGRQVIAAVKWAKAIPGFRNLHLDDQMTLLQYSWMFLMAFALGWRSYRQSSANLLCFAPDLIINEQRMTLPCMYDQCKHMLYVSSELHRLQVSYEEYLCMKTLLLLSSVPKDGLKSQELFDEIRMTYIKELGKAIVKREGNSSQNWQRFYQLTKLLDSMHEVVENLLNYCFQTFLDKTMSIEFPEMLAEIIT
Test: Agonistic mode of action on the glucocorticoid receptor (CHO-Gal4/GR luciferase reporter cell line)
Assay type: cell-based
Settings: range class observed in the agonistic assay or the antagonistic assay (CHO-Gal4/GR reporter cells); table does not say which mode applies per example
How it was run: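 Agonism measured as dose-dependent luciferase luminescence (FLIPR Tetra) from a GAL4-UAS reporter driven by GAL4 DBD fused to GR ligand-binding domain in stable CHO cells. Eight half-log doses, 10 μM to 0.003 μM final in 0.5% DMSO, quadruplicate, on cells seeded 24 h earlier at 5000/well; EC50 derived.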

| Structure (SMILES) | IC50 or EC50 (agonist or antagonist mode not specified) [nM] |
| --- | --- |
| Cc1nnc2n1-c1c(cc(F)c(-c3cccc4c3cnn4S(C)(=O)=O)c1C(F)F)NC2(C)C [Example 382, 9-(Difluoro-methyl)-7-fluoro-1,4,4-trimethyl-8-(1-methylsulfonyl-1H-indazol-4-yl)-5H-[1,2,4]triazolo[4,3-a]quinoxaline] | 1000 to 15000 |
| COc1cc2c(c(C(F)(F)F)c1-c1cc(F)cc3c1ccn3S(C)(=O)=O)-n1c(C)nnc1C(C)(C)N2 [Example 329, 8-(6-Fluoro-1-methylsulfonyl-1H-indol-4-yl)-7-methoxy-1,4,4-trimethyl-9-(trifluoromethyl)-5H-[1,2,4]triazolo[4,3-a]quinoxaline] | 100 to 1000 |
| Cc1nnc2n1-c1c(cc(F)c(-c3cccc4c3ccn4CCNC(=O)OC(C)(C)C)c1F)NC2(C)C [Example 228, N-[2-[4-(7,9-Difluoro-1,4,4-trimethyl-5H-[1,2,4]triazolo[4,3-a]quinoxalin-8-yl)-1H-indol-1-yl]-ethyl]-carbarmic acid tert-butyl ester] | 1000 to 15000 |
| COc1cc2c(c(C(F)(F)F)c1-c1cc(F)cc3c(C4CC4)c[nH]c13)-n1c(C)nnc1C(C)(C)N2 [Example 482, 8-(3-Cyclopropyl-5-fluoro-1H-indol-7-yl)-7-methoxy-1,4,4-trimethyl-9-(trifluoromethyl)-5H-[1,2,4]triazolo[4,3-a]quinoxaline] | < 100 |
| Cc1nnc2n1-c1c(cc(F)c(-c3cccc4c(C5CC5)c[nH]c34)c1C(F)(F)F)NC2(C)C [Example 87, 8-(3-cyclopropyl-1H-indol-7-yl)-7-fluoro-1,4,4-trimethyl-9-(trifluoromethyl)-4,5-dihydro-[1,2,4]triazolo[4,3-a]quinoxaline] | 100 to 1000 |
| Cc1c[nH]c2c(-c3c(Cl)cc4c(c3F)-n3c(C)nnc3C(C)(C)N4)cccc12 [Example 272, 7-Chloro-9-fluoro-1,4,4-trimethyl-8-(3-methyl-1H-indol-7-yl)-5H-[1,2,4]triazolo[4,3-a]quinoxaline] | 100 to 1000 |
| CCS(=O)(=O)n1ccc2c(-c3c(F)cc4c(c3C)-n3c(C)nnc3C(C)(C)N4)cccc21 [Example 372, 8-[1-(Ethylsulfonyl)-1H-indol-4-yl]-7-fluoro-1,4,4,9-tetramethyl-5H-[1,2,4]triazolo[4,3-a]quinoxaline] | < 100 |
| Cc1nnc2n1-c1c(cc(F)c(-c3cccc4c3ccn4CCNC(=O)C(C)(F)F)c1F)NC2(C)C [Example 229, N-[2-[4-(7,9-Difluoro-1,4,4-trimethyl-5H-[1,2,4]triazolo[4,3-a]quinoxalin-8-yl)-1H-indol-1-yl]-ethyl]-2,2-difluoro-propionamide] | 1000 to 15000 |
| Cc1c(-c2cccc3c(C#CC(C)(C)N)c[nH]c23)c(F)cc2c1-n1c(C)nnc1C(C)(C)N2 [Example 40] | < 100 |
| Cc1c(-c2cc(C(F)(F)F)cc3[nH]ccc23)c(Cl)cc2c1-n1c(C)nnc1C(C)(C)N2 [Example 475, 7-Chloro-1,4,4,9-tetramethyl-8-[6-(trifluoromethyl)-1H-indol-4-yl]-5H-[1,2,4]triazolo[4,3-a]quinoxaline] | 100 to 1000 |
| Cc1cc2c(c(C)c1-c1cccc3c1ccn3CC(F)F)-n1c(C)nnc1C(C)(C)N2 [Example 324, 8-[1-(2,2-Difluoro-ethyl)-1H-indol-4-yl]-1,4,4,7,9-pentamethyl-5H-[1,2,4]triazolo[4,3-a]quinoxaline] | 100 to 1000 |
| Cc1cc2c(c(F)c1-c1cccc3c1ccn3S(C)(=O)=O)-n1c(C)nnc1C(C)(C)N2 [Example 321, 9-Fluoro-1,4,4,7-tetramethyl-8-(1-methylsulfonyl-1H-indol-4-yl)-5H-[1,2,4]triazolo[4,3-a]quinoxaline] | 1000 to 15000 |
| COc1c(-c2cccc3c(C)n[nH]c23)c(F)cc2c1-n1c(C)nnc1C(C)(C)N2 [Example 381, 7-Fluoro-9-methoxy-1,4,4-trimethyl-8-(3-methyl-1H-indazol-7-yl)-5H-[1,2,4]triazolo[4,3-a]quinoxaline] | 1000 to 15000 |
| Cc1c(-c2cc(Cl)cc3[nH]ccc23)c(F)cc2c1-n1c(C)nnc1C(C)(C)N2 [Example 513, 8-(6-Chloro-1H-indol-4-yl)-7-fluoro-1,4,4,9-tetramethyl-5H-[1,2,4]triazolo[4,3-a]quinoxaline] | 100 to 1000 |
| Cc1cc2c(c(F)c1-c1cc(F)cc3c(C)c[nH]c13)-n1c(C)nnc1C(C)(C)N2 [Example 364, 9-Fluoro-8-(5-fluoro-3-methyl-1H-indol-7-yl)-1,4,4,7-tetramethyl-5H-[1,2,4]triazolo[4,3-a]quinoxaline] | 100 to 1000 |
| Cc1nnc2n1-c1c(cc(OC(F)F)c(-c3cccc4[nH]c(C(F)(F)F)cc34)c1F)NC2(C)C [Example 252, 7-(Difluoro-methoxy)-9-fluoro-1,4,4-trimethyl-8-[2-(trifluoromethyl)-1H-indol-4-yl]-5H-[1,2,4]triazolo[4,3-a]quinoxaline] | 100 to 1000 |
| Cc1nnc2n1-c1c(cc(F)c(-c3cccc4c(C#N)c[nH]c34)c1C(F)(F)F)NC2(C)C [Example 89, 7-(7-fluoro-1,4,4-trimethyl-9-(trifluoromethyl)-4,5-dihydro-[1,2,4]triazolo[4,3-a]quinoxalin-8-yl)-1H-indole-3-carbonitrile] | 100 to 1000 |
| Cc1c(-c2cc(F)cc3c(C)c[nH]c23)c(OC(F)F)cc2c1-n1c(C)nnc1C(C)(C)N2 [Example 365, 7-(Difluoro-methoxy)-8-(5-fluoro-3-methyl-1H-indol-7-yl)-1,4,4,9-tetramethyl-5H-[1,2,4]triazolo[4,3-a]quinoxaline] | 1000 to 15000 |
| Cc1c[nH]c2c(-c3c(F)cc4c(c3F)-n3c(Cc5ccccc5)nnc3C(C)(C)N4)cc(F)cc12 [Example 67, 1-Benzyl-7,9-difluoro-8-(5-fluoro-3-methyl-1H-indol-7-yl)-4,4-dimethyl-5H-[1,2,4]triazolo[4,3-a]quinoxaline] | 1000 to 15000 |
| Cc1nnc2n1-c1c(cc(F)c(-c3ccc(F)c4[nH]ccc34)c1F)NC2(C)C [Example 497, 7,9-Difluoro-8-(7-fluoro-1H-indol-4-yl)-1,4,4-trimethyl-5H-[1,2,4]triazolo[4,3-a]quinoxaline] | 100 to 1000 |
| Cc1c(-c2cc(F)cc3c2ccn3C)c(F)cc2c1-n1c(C)nnc1C(C)(C)N2 [Example 518, 7-Fluoro-8-(6-fluoro-1-methyl-1H-indol-4-yl)-1,4,4,9-tetramethyl-5H-[1,2,4]triazolo[4,3-a]quinoxaline] | < 100 |
| COc1c(-c2cccc3[nH]ncc23)c(F)cc2c1-n1c(C)nnc1C(C)(C)N2 [Example 490, 7-Fluoro-8-(1H-indazol-4-yl)-9-methoxy-1,4,4-trimethyl-5H-[1,2,4]triazolo[4,3-a]quinoxaline] | 100 to 1000 |
| COc1c(-c2cc(F)cc3c(C)c[nH]c23)c(F)cc2c1-n1c(C)nnc1C(C)(C)N2 [Example 249, 7-Fluoro-8-(5-fluoro-3-methyl-1H-indol-7-yl)-9-methoxy-1,4,4-trimethyl-5H-[1,2,4]triazolo[4,3-a]quinoxaline] | < 100 |
| Cc1c(-c2cccc3c(CC(F)(F)F)c[nH]c23)c(F)cc2c1-n1c(C)nnc1C(C)(C)N2 [Example 24, 7-fluoro-1,4,4,9-tetramethyl-8-(3-(2,2,2-trifluoroethyl)-1H-indol-7-yl)-4,5-dihydro-[1,2,4]triazolo[4,3-a]quinoxaline] | < 100 |
| Cc1nnc2n1-c1c(cc(F)c(-c3cc(F)cc4c3ccn4C)c1C(F)(F)F)NC2(C)C [Example 532, 7-Fluoro-8-(6-fluoro-1-methyl-1H-indol-4-yl)-1,4,4-trimethyl-9-(trifluoromethyl)-5H-[1,2,4] triazolo[4,3-a]quinoxaline] | < 100 |
| Cc1c(-c2cc(F)cc3c2ccn3C)c(Cl)cc2c1-n1c(C)nnc1C(C)(C)N2 [Example 519, 7-Chloro-8-(6-fluoro-1-methyl-1H-indol-4-yl)-1,4,4,9-tetramethyl-5H-[1,2,4]triazolo[4,3-a]quinoxaline] | < 100 |
| Cc1c(-c2cccc3c2ccn3CC(F)F)c(F)cc2c1-n1c(C)nnc1C(C)(C)N2 [Example 330, 8-[1-(2,2-Difluoro-ethyl)-1H-indol-4-yl]-7-fluoro-1,4,4,9-tetramethyl-5H-[1,2,4]triazolo[4,3-a]quinoxaline] | < 100 |
| COCCn1ccc2c(-c3c(F)cc4c(c3F)-n3c(C)nnc3C(C)(C)N4)cccc21 [Example 204, 7,9-Difluoro-8-[1-(2-methoxy-ethyl)-1H-indol-4-yl]-1,4,4-trimethyl-5H-[1,2,4]triazolo[4,3-a]quinoxaline] | 100 to 1000 |
| CCc1nnc2n1-c1c(cc(F)c(-c3cccc4c3cnn4C)c1C)NC2(C)C [Example 240, 1-Ethyl-7-fluoro-4,4,9-trimethyl-8-(1-methyl-1H-indazol-4-yl)-5H-[1,2,4]triazolo[4,3-a]quinoxaline] | 1000 to 15000 |
| Cc1c[nH]c2c(-c3c(C(F)F)cc4c(c3F)-n3c(C)nnc3C(C)(C)N4)cc(F)cc12 [Example 296, 7-(Difluoro-methyl)-9-fluoro-8-(5-fluoro-3-methyl-1H-indol-7-yl)-1,4,4-trimethyl-5H-[1,2,4]triazolo[4,3-a]quinoxaline] | 100 to 1000 |
